# From PubChem BioAssay (NCI)
#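 Grown in 96-well plates, cells were treated for 48 hours with each compound at five concentrations. Insufficient inhibition: endpoint recorded as highest concentration tested. GI50 = concentration required for 50% inhibition of growth. TGI denotes the concentration required for complete inhibition of growth.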
# How the values were obtained:
# Test in all cases: DTP human tumour cell line panel, 48 h
# [1] = tested on: SNB-19 CNS
# [2] = tested on: OVCAR-4 ovarian
# [3] = tested on: MOLT-4 leukemia
# [4] = tested on: IGROV1 ovarian
# [5] = tested on: SN12C renal
# [6] = tested on: HOP-62 NSCLC
# [7] = tested on: SF-539 CNS
# [8] = tested on: A549 NSCLC
# [9] = tested on: SK-OV-3 ovarian
# [10] = tested on: UACC-257 melanoma
SMILES,GI50 [1] [µM],TGI [1] [µM],GI50 [2] [µM],TGI [2] [µM],GI50 [3] [µM],TGI [3] [µM],GI50 [4] [µM],TGI [4] [µM],GI50 [5] [µM],TGI [5] [µM],GI50 [6] [µM],TGI [6] [µM],GI50 [7] [µM],TGI [7] [µM],GI50 [8] [µM],TGI [8] [µM],GI50 [9] [µM],TGI [10] [µM],TGI [9] [µM],GI50 [10] [µM]
COc1ccc2c(c1)NC1=C(C(=O)OC1)C2c1cc(OC)c2c(c1)OCO2 (configuration not stated),0.0519,> 100,0.0257,> 100,0.0246,> 100,0.0337,> 100,0.0288,> 100,0.0225,70.8,< 0.0178,> 83.2,0.0229,> 100,0.0204,> 100,,
C=C1C(O)C2C(=C(CC)C13CC3)C(=O)C(C)(C)C2OC (configuration not stated),> 100,> 100,> 100,> 100,27.3,> 100,23.8,> 100,74.2,> 100,90.8,> 100,54.4,> 100,44.9,> 100,> 100,> 100,> 100,35.6
O=c1cnn(C2OC(CO)C(O)C2O)c(=S)[nH]1 (configuration not stated),,> 100,,> 100,,> 30.7,,> 100,,> 100,,> 100,,> 100,,> 100,,> 100,> 100,
COc1cc(OC)c2nc(C)c3c(c2c1)SCC3,,34.8,,38.5,,> 100,,34.7,,57.9,,34.6,,35.8,,40.9,,78.3,48.9,
Cn1ncnc1[C@H]1c2n[nH]c(=O)c3cc(F)cc(c23)N[C@@H]1c1ccc(F)cc1,22.8,> 100,14.6,> 100,5.07,> 100,74.1,> 100,3.26,> 100,5.81,> 100,,> 100,6.96,> 100,> 100,> 100,> 100,> 100
Cc1ccc(S(=O)(=O)c2c(COC(=O)c3cccc(C)c3)c(-c3ccccc3)nn2C)cc1,> 100,> 100,> 100,> 100,> 100,> 100,> 100,> 100,> 100,> 100,> 100,> 100,> 100,> 100,> 100,> 100,> 100,> 100,> 100,> 100
OC1(C23CC4CC(CC(C4)C2)C3)CSCC1(O)C12CC3CC(CC(C3)C1)C2 (configuration not stated),,> 100,,> 100,,> 10,,> 100,,> 100,,> 100,,> 100,,> 100,,> 100,> 100,
C/C(O)=C(/C=N/C(=S)Nc1ccc(S(N)(=O)=O)cc1)C(=O)Nc1ccccc1C,,> 100,,> 100,,> 100,,> 100,,> 100,,> 100,,> 100,,> 100,,> 100,> 100,
